Experimental data from the kinase profiling compilation of Christmann-Franck et al. (2016).

Key:
Assay in all cases: KINOMEscan competition binding
Details in all cases: compound 1.0 µM
[1] = test system: ABL1 (human), P00519 [T315I]
ADCK4 (human) = ADCK4 (human) (UniProt Q96D53)
BLK (human) = BLK (human) (UniProt P51451)
BMPR1A (human) = BMPR1A (human) (UniProt P36894)
CDK8 (human) = CDK8 (human) (UniProt P49336)
CHEK2 (human) = CHEK2 (human) (UniProt O96017)
CSK (human) = CSK (human) (UniProt P41240)
CSNK1G2 (human) = CSNK1G2 (human) (UniProt P78368)
[2] = test system: EGFR (human), P00533 [746-750 del]
[3] = test system: EGFR (human), P00533 [P753S; 747-752 del]
EPHA6 (human) = EPHA6 (human) (UniProt Q9UF33)
EPHA8 (human) = EPHA8 (human) (UniProt P29322)
ERBB4 (human) = ERBB4 (human) (UniProt Q15303)
FRK (human) = FRK (human) (UniProt P42685)
IKBKB (human) = IKBKB (human) (UniProt O14920)
IRAK1 (human) = IRAK1 (human) (UniProt P51617)
[4] = test system: KIT (human), P10721 [V559D/T670I]
LTK (human) = LTK (human) (UniProt P29376)
LYN (human) = LYN (human) (UniProt P07948)
MAP3K11 (human) = MAP3K11 (human) (UniProt Q16584)
MAP3K4 (human) = MAP3K4 (human) (UniProt Q9Y6R4)
MAPK3 (human) = MAPK3 (human) (UniProt P27361)
MAPK7 (human) = MAPK7 (human) (UniProt Q13164)
MUSK (human) = MUSK (human) (UniProt O15146)
NEK6 (human) = NEK6 (human) (UniProt Q9HC98)
PIM1 (human) = PIM1 (human) (UniProt P11309)
PIM3 (human) = PIM3 (human) (UniProt Q86V86)
PRKACB (human) = PRKACB (human) (UniProt P22694)
PRKD1 (human) = PRKD1 (human) (UniProt Q15139)
PRKD2 (human) = PRKD2 (human) (UniProt Q9BZL6)
PRPF4B (human) = PRPF4B (human) (UniProt Q13523)
[5] = test system: RET (human), P07949 [V804M]
RIOK1 (human) = RIOK1 (human) (UniProt Q9BRS2)
RIOK3 (human) = RIOK3 (human) (UniProt O14730)
RPS6KA3 KD1 (human) = RPS6KA3 KD1 (human) (UniProt P51812)
SRMS (human) = SRMS (human) (UniProt Q9H3Y6)
STK3 (human) = STK3 (human) (UniProt Q13188)
TGFBR1 (human) = TGFBR1 (human) (UniProt P36897)
TNNI3K (human) = TNNI3K (human) (UniProt Q59H18)
TTK (human) = TTK (human) (UniProt P33981)
Chain of TTK (human) (P33981 whole entry, looked up): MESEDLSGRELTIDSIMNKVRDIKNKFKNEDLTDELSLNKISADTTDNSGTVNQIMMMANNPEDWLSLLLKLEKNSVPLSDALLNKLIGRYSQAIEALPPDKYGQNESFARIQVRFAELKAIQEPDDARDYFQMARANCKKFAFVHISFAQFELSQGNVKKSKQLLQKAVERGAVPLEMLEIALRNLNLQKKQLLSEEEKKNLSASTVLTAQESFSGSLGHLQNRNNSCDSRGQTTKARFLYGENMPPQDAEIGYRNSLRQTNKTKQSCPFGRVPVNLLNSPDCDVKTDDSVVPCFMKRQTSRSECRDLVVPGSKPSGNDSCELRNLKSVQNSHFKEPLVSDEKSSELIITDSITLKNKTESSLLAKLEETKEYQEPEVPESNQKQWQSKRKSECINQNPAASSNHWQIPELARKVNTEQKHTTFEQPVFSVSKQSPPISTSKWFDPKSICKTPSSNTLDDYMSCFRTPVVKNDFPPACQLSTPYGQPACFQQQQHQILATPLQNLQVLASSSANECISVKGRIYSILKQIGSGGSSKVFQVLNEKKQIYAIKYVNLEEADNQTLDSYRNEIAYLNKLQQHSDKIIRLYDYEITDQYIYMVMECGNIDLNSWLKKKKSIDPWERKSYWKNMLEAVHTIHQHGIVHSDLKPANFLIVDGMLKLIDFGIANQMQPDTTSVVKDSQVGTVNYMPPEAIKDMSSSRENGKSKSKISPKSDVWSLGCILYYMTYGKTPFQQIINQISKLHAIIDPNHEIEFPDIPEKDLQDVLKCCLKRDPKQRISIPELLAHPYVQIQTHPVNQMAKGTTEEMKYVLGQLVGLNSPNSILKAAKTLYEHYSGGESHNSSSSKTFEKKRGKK

Chain of BMPR1A (human) (P36894 whole entry, looked up): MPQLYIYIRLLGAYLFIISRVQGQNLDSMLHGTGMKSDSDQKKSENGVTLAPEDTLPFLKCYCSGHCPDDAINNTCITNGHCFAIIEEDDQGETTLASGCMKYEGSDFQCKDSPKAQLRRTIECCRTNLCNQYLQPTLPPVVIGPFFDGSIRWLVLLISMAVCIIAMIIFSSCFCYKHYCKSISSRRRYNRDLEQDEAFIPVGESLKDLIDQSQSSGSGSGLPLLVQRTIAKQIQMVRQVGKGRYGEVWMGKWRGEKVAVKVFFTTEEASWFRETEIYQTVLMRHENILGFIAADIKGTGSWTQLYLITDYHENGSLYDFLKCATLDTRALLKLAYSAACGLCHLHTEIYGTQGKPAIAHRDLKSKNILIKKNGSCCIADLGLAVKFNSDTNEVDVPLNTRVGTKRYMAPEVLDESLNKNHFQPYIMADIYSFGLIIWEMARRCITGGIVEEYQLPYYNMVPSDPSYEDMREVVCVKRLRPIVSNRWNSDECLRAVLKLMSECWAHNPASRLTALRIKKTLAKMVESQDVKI
Chain of RET (human), P07949 [V804M] (P07949 whole entry V804M, looked up): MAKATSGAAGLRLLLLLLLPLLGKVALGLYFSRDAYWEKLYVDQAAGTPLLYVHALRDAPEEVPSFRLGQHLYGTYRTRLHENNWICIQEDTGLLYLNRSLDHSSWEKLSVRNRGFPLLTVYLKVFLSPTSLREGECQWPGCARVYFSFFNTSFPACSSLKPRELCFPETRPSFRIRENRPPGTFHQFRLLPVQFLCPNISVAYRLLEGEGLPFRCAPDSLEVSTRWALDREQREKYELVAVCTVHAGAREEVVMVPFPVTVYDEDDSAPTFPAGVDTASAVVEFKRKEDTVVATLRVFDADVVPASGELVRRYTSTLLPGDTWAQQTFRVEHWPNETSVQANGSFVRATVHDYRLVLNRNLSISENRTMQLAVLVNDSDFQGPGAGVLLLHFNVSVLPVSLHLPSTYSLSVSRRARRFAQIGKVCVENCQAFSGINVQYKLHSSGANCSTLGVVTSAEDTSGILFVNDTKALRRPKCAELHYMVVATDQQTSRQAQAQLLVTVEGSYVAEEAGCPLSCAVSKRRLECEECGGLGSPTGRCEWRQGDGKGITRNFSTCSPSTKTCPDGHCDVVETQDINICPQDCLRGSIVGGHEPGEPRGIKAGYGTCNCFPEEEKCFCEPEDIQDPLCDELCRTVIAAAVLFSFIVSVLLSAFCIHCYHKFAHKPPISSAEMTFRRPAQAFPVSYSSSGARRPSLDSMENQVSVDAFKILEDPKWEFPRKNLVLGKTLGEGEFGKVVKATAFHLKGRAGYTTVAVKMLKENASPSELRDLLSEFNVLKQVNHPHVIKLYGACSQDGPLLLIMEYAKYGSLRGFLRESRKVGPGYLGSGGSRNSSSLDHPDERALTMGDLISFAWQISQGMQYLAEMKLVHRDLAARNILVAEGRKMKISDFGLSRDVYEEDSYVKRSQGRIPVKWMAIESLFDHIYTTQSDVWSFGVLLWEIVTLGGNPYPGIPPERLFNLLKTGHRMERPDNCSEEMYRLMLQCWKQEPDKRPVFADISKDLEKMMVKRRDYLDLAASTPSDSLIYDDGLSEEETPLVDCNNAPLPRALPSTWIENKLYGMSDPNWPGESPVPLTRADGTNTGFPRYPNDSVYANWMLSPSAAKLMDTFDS
Chain of LYN (human) (P07948 whole entry, looked up): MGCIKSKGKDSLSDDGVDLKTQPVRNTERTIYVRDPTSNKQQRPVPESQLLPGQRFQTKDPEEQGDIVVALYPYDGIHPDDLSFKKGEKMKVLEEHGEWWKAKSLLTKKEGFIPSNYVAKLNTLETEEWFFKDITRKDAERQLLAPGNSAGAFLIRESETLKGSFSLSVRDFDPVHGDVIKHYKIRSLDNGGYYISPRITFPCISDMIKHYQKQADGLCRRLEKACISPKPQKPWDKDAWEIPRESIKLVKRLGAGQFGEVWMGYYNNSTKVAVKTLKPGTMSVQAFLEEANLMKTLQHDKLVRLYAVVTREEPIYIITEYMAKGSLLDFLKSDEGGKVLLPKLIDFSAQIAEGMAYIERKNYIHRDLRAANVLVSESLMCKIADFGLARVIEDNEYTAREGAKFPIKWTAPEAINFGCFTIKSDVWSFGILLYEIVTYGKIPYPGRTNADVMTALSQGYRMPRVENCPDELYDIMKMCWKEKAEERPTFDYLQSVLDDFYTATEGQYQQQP
Chain of MUSK (human) (O15146 whole entry, looked up): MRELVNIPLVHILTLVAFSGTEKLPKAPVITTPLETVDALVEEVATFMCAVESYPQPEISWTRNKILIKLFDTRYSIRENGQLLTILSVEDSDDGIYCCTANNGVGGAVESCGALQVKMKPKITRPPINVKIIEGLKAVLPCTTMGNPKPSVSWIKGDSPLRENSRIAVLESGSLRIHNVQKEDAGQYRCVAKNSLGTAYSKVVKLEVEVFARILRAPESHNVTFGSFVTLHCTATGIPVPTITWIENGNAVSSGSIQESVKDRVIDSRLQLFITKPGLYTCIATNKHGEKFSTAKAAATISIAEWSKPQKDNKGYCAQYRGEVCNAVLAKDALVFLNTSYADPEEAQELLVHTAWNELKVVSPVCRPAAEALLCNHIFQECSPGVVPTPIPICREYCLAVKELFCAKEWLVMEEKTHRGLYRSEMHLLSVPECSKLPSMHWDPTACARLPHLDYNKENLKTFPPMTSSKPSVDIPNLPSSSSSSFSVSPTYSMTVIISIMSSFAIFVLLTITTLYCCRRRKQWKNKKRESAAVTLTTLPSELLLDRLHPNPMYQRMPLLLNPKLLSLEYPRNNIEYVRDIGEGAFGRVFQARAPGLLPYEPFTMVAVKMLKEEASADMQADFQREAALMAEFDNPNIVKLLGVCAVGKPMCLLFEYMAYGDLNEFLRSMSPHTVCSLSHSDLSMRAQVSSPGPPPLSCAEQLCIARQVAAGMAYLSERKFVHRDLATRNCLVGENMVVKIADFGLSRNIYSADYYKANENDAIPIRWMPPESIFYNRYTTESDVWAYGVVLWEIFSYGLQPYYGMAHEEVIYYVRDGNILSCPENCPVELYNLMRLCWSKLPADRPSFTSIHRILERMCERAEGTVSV
Chain of ADCK4 (human) (Q96D53 whole entry, looked up): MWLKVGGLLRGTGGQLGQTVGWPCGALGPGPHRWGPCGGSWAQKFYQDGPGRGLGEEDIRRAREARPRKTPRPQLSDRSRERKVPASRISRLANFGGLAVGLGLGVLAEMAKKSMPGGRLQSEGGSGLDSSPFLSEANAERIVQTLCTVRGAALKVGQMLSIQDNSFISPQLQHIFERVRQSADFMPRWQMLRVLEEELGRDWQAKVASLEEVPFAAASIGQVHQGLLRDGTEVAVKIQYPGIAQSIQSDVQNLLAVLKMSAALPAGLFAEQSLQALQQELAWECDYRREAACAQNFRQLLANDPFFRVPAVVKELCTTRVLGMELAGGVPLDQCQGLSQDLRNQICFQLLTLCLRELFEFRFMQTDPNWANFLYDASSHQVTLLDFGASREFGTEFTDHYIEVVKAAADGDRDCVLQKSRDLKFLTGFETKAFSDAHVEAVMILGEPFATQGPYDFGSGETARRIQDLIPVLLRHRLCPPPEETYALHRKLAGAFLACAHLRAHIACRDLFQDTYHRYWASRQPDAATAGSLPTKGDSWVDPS

## Nc1cc(C(F)(F)F)c(-c2cc(N3CCOCC3)nc(N3CCOCC3)n2)cn1
[1]
  inhibition of binding: 2%
ADCK4 (human)
  inhibition of binding: 0%
BLK (human)
  inhibition of binding: 0%
BMPR1A (human)
  inhibition of binding: 0%
CDK8 (human)
  inhibition of binding: 0%
CHEK2 (human)
  inhibition of binding: 0%
CSK (human)
  inhibition of binding: 8%
CSNK1G2 (human)
  inhibition of binding: 0%
[2]
  inhibition of binding: 0%
[3]
  inhibition of binding: 1%
EPHA6 (human)
  inhibition of binding: 3%
EPHA8 (human)
  inhibition of binding: 0%
ERBB4 (human)
  inhibition of binding: 7%
FRK (human)
  inhibition of binding: 0%
IKBKB (human)
  inhibition of binding: 0%
IRAK1 (human)
  inhibition of binding: 12%
[4]
  inhibition of binding: 0%
LTK (human)
  inhibition of binding: 0%
LYN (human)
  inhibition of binding: 0%
MAP3K11 (human)
  inhibition of binding: 0%
MAP3K4 (human)
  inhibition of binding: 1%
MAPK3 (human)
  inhibition of binding: 1%
MAPK7 (human)
  inhibition of binding: 0%
MUSK (human)
  inhibition of binding: 0%
NEK6 (human)
  inhibition of binding: 0%
PIM1 (human)
  inhibition of binding: 2%
PIM3 (human)
  inhibition of binding: 5%
PRKACB (human)
  inhibition of binding: 4%
PRKD1 (human)
  inhibition of binding: 36%
PRKD2 (human)
  inhibition of binding: 38%
PRPF4B (human)
  inhibition of binding: 4%
[5]
  inhibition of binding: 14%
RIOK1 (human)
  inhibition of binding: 11%
RIOK3 (human)
  inhibition of binding: 0%
RPS6KA3 KD1 (human)
  inhibition of binding: 0%
SRMS (human)
  inhibition of binding: 0%
STK3 (human)
  inhibition of binding: 0%
TGFBR1 (human)
  inhibition of binding: 4%
TNNI3K (human)
  inhibition of binding: 0%
TTK (human)
  inhibition of binding: 7%
